Test results taken from US6025471A, “Diazaspiro, azepino and azabicyclo therapeutic peptides” (priority 1998, dated 2000).
Where a SMILES comes first, the peptide text is derived from it. [ ]: non-standard residue; d: D form. dTrp(2-Me) = Cc1[nH]c2ccccc2c1C[C@@H](N)C(=O)O

What was measured:
[1] = test system: growth hormone deficient rats; settings: cited from earlier work
human heart membranes = assay: binding of peptides on human heart membranes (displacement of radiolabelled peptide); settings: FIG. 1
Source text: The binding abilities of certain peptides according to the invention compared to conventional peptides on human heart membranes are shown in FIG. 1. […]
Peptide A is in accordance with the invention, while peptides B-F are comparative. As shown in the figure, peptide A provided inhibition (i.e., displacement) of ^125 I-Tyr-Ala-His-D-Mrp-Ala-Trp-D-Phe-Lys-NH2 in a proportion of about 75%, whereas peptides B-F only provided about 5 to less than 35%. The greater binding affinities for the peptides of the invention illustrate that these peptides directly operate on specific receptors of heart tissue to achieve normalization of cardiac pressure.

| Molecule | effect on worsening of cardiac dysfunction [1] | inhibition (i.e., displacement) of 125I-Tyr-Ala-His-D-Mrp-Ala-Trp-D-Phe-Lys-NH2 (human heart membranes) |
| --- | --- | --- |
| Cc1[nH]c2ccccc2c1C[C@@H](NC(=O)[C@@H](N)Cc1cnc[nH]1)C(=O)N[C@@H](C)C(=O)N[C@@H](Cc1c[nH]c2ccccc12)C(=O)N[C@H](Cc1ccccc1)C(=O)N[C@@H](CCCCN)C(N)=O [Hexarelin, His-D-2-methyl-Trp-Ala-Trp-D-Phe-Lys-NH2] (H-H[dTrp(2-Me)]AW[dF]K-NH2) | reverse the worsening of cardiac dysfunction |  |
| [S,S-Spiro(Pro-Leu )]-D-Mrp-D-Trp-Phe-Lys-NH2 [peptide A] |  | about 75% |
